# Measurements from article doi:10.1101/735001v1 (bioRxiv, 2019).
# Where a SMILES comes first, the peptide text is derived from it. [ ]: non-standard residue; d: D form. Dmt = Cc1cc(O)cc(C)c1C[C@H](N)C(=O)O
# What was measured:
# [1] = Acrylamide dynamic quenching; format: physicochemical
# LUVs containing 20% POPG = experiment: Acrylamide dynamic quenching; format: binding; settings: 20 μM SS-31 with LUVs 20% POPG, n=3
# LUVs with POPC only = experiment: Endogenous 2',6'-Dmt fluorescence measurement of SS-31 membrane binding; settings: 100% POPC, high salt (100 mM KCl), 20 μM SS-31, [L]eff 100 µM, mean (SD), n=6
# [2] = tested on: LUVs containing 10 mol% TOCL; experiment: SS-31 titration time course binding saturation analysis; settings: low salt
# LUVs containing 20% MLCL = experiment: Acrylamide dynamic quenching; format: binding; settings: 20 μM SS-31 with LUVs 20% MLCL, n=3
# [3] = tested on: LUVs containing 20 mol% TOCL in POPC; experiment: Endogenous 2',6'-Dmt fluorescence measurement of SS-31 membrane binding; settings: for increase in SS-31 emission intensity relative to emission in the absence of LUVs: 20% TOCL, mean (SD), n=6, SD; for n value ([L]eff:[P] at saturation) from time course titration inflection point: 20 mol% TOCL
# [4] = tested on: LUVs containing 20 mol% MLCL in POPC; experiment: as above; settings: 20% MLCL, mean (SD), n=6
# [5] = tested on: LUVs containing 20 mol% POPG in POPC; experiment: as above; settings: for increase in SS-31 emission intensity relative to emission in the absence of LUVs: 20% POPG, mean (SD), n=6, SD
# LUVs containing 20% TOCL = experiment: Acrylamide dynamic quenching; format: binding; settings: 20 μM SS-31 with LUVs 20% TOCL, n=3
# [6] = aqueous buffer, comparison of SS-31 with L-Tyr (Fig. S3C), n=3
SMILES,"Stern-Volmer constant KSV (acrylamide quenching) [1, 6]","Stern-Volmer constant KSV (acrylamide quenching) ([1]; 20 μM SS-31 in the absence of membranes, high salt (100 mM KCl))","Stern-Volmer constant KSV (acrylamide quenching) ([1]; 20 μM SS-31 in the absence of membranes, low salt)",Stern-Volmer constant KSV (acrylamide quenching) (LUVs containing 20% POPG; high salt),Stern-Volmer constant KSV (acrylamide quenching) (LUVs containing 20% POPG; low salt),increase in SS-31 emission intensity relative to emission in the absence of LUVs (LUVs with POPC only),n value ([L]eff:[P] at saturation) from time course titration inflection point [2],Stern-Volmer constant KSV (acrylamide quenching) (LUVs containing 20% MLCL; high salt),Stern-Volmer constant KSV (acrylamide quenching) (LUVs containing 20% MLCL; low salt),increase in SS-31 emission intensity relative to emission in the absence of LUVs ([3]; high salt (100 mM KCl)),"increase in SS-31 emission intensity relative to emission in the absence of LUVs ([3]; low salt, 20 μM SS-31, [L]eff 100 µM)",n value ([L]eff:[P] at saturation) from time course titration inflection point ([3]; high salt),"n value ([L]eff:[P] at saturation) from time course titration inflection point ([3]; low salt, SS-31 added in 2 µM increments, acrylamide in medium)",increase in SS-31 emission intensity relative to emission in the absence of LUVs ([4]; high salt (100 mM KCl)),increase in SS-31 emission intensity relative to emission in the absence of LUVs ([4]; low salt),increase in SS-31 emission intensity relative to emission in the absence of LUVs ([5]; high salt (100 mM KCl)),increase in SS-31 emission intensity relative to emission in the absence of LUVs ([5]; low salt),"n value ([L]eff:[P] at saturation) from time course titration inflection point ([5]; 20 mol% POPG, low salt)",Stern-Volmer constant KSV (acrylamide quenching) (LUVs containing 20% TOCL; high salt),Stern-Volmer constant KSV (acrylamide quenching) (LUVs containing 20% TOCL; low salt)
"N[C@@H](Cc1ccc(O)cc1)C(=O)O [L-Tyr, reference compound]",17.1 M⁻¹,–,–,–,–,–,–,–,–,–,–,–,–,–,–,–,–,–,–,–
"Cc1cc(O)cc(C)c1C[C@H](NC(=O)[C@H](N)CCCNC(=N)N)C(=O)N[C@@H](CCCCN)C(=O)N[C@@H](Cc1ccccc1)C(N)=O [SS-31, D-Arg-2’6’-dimethylTyr-Lys-Phe-NH2] (H-[dR][Dmt]KF-NH2)",4.8 M⁻¹,5.4 M⁻¹,5.7 M⁻¹,2.19 M⁻¹,0.21 M⁻¹,1.08 (0.04),~ 12,1.04 M⁻¹,0.02 M⁻¹,1.72 (0.08),2.33 (0.07),~ 9,~ 5,1.79 (0.05),2.48 (0.05),1.45 (0.04),2.16 (0.04),~11,1.20 M⁻¹,0.15 M⁻¹
